Reference: patent US10093630B2, “Pyrazole compounds and methods of making and using same” (ABIDE THERAPEUTICS, INC., priority 2014, dated 2018)
Read-outs that look alike come from different tables or passages of the source.

Experiments:
Experiment in all cases: In vitro competitive activity-based protein profiling (gel-based, FP-Rh or HT-01 probe)
Assay type in all cases: biochemical
[1] = target: T1, ABHD6 (Mus musculus, UniProt Q8R2Y0); conditions: for inhibition at 1 µM: 1 μM inhibitor, read-out: % Inhibition at 1 μM, C = ABHD6; for inhibition at 10 µM: 10 μM inhibitor, read-out: % Inhibition at 10 μM, C = ABHD6; for IC50: mouse brain membrane fraction or cell lysates, 30 min preincubation at 37° C., read-out: Mouse (IC50 value, nM) ABHD6
T1 construct: Proteomes (mouse brain membrane fraction or cell lysates); from tissue; host or cells: mouse brain membrane fraction (or cell lysates, not specified)
T1 sequence (Q8R2Y0 1-336): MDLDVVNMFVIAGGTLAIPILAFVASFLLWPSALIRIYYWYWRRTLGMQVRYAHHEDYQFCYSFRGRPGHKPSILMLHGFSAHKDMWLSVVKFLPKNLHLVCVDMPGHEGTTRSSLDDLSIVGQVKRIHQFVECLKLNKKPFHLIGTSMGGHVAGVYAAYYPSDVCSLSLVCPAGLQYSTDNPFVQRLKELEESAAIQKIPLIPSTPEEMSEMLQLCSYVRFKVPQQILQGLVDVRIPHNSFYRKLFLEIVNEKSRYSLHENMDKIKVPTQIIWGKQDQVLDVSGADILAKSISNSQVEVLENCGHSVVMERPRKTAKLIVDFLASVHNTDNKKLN
How it was run: (§1)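 Read-out: fluorescent band intensity on SDS-PAGE gels, reporting remaining serine hydrolase activity. Before that, proteome (mouse brain membranes or cell lysates, 1.0 mg/mL) saw a range of inhibitor concentrations for 30 min at 37° C, followed by 30 min probe labelling (FP-Rh or HT-01).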

[2] = target: T2, FAAH (Mus musculus, UniProt O08914); conditions: for inhibition at 1 µM: 1 μM inhibitor, read-out: % Inhibition at 1 μM, B = FAAH; for inhibition at 10 µM: 10 μM inhibitor, read-out: % Inhibition at 10 μM, B = FAAH; for IC50: mouse brain membrane fraction or cell lysates, 30 min preincubation at 37° C., read-out: Mouse (IC50 value, nM) FAAH
T2 construct: Proteomes (mouse brain membrane fraction or cell lysates); from tissue; host or cells: mouse brain membrane fraction (or cell lysates, not specified)
T2 sequence (O08914 1-579): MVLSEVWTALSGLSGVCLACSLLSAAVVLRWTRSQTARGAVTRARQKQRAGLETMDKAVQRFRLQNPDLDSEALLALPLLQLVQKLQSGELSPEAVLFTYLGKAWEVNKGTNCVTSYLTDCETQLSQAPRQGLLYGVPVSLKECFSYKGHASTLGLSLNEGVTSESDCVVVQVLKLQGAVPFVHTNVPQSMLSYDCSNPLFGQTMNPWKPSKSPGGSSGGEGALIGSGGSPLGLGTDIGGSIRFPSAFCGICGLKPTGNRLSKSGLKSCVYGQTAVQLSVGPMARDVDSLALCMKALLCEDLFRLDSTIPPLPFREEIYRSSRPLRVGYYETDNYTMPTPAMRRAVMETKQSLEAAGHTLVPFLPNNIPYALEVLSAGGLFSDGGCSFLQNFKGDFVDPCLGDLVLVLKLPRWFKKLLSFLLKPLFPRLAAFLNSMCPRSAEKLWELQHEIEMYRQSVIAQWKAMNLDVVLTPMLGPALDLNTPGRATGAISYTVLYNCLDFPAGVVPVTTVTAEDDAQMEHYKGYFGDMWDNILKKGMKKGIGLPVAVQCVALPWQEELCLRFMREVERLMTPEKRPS
How it was run: as §1

[3] = target: T3, MAGL (Mus musculus, UniProt O35678); conditions: for inhibition at 1 µM: 1 μM inhibitor; for inhibition at 10 µM: 10 μM inhibitor; for IC50: mouse brain membrane fraction or cell lysates, 30 min preincubation at 37° C., read-out: Mouse (IC50 value, nM) MAGL
T3 construct: Proteomes (mouse brain membrane fraction or cell lysates); from tissue; host or cells: mouse brain membrane fraction (or cell lysates, not specified)
T3 sequence (O35678 1-303): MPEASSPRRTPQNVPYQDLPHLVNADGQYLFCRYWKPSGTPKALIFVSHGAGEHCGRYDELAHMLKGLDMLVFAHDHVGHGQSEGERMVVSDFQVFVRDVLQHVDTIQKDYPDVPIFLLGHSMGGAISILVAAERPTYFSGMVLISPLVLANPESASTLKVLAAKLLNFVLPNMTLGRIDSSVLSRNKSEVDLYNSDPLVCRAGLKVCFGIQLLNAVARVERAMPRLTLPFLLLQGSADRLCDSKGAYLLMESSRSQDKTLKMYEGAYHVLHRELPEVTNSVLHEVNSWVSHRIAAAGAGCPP
How it was run: as §1

[4] = target: T4, PLA2G7 (Mus musculus, UniProt Q60963); conditions: for inhibition at 1 µM: 1 μM inhibitor, read-out: % Inhibition at 1 μM, D = PLA2G7; for inhibition at 10 µM: 10 μM inhibitor, read-out: % Inhibition at 10 μM, D = PLA2G7
T4 construct: Proteomes (mouse brain membrane fraction or cell lysates); from tissue; host or cells: mouse brain membrane fraction (or cell lysates, not specified)
T4 sequence (Q60963 22-440): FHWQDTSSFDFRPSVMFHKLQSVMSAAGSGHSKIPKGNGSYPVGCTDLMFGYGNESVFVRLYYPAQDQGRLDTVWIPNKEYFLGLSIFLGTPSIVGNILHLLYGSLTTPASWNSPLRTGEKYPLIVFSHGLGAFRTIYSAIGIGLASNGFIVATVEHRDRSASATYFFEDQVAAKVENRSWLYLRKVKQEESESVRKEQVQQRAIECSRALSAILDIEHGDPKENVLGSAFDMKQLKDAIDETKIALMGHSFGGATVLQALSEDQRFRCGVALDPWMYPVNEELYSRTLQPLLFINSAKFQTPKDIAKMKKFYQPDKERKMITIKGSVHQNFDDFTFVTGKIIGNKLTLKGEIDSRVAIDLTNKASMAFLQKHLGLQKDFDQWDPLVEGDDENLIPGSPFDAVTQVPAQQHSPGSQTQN
How it was run: as §1

SMILES	inhibition at 1 µM ([1]; gel-based competitive ABPP)	inhibition at 1 µM ([2]; gel-based competitive ABPP)	inhibition at 1 µM ([3]; gel-based competitive ABPP)	inhibition at 1 µM ([4]; gel-based competitive ABPP)	inhibition at 10 µM ([1]; gel-based competitive ABPP)	inhibition at 10 µM ([2]; gel-based competitive ABPP)	inhibition at 10 µM ([3]; gel-based competitive ABPP)	inhibition at 10 µM ([4]; gel-based competitive ABPP)	inhibition at 10 µM [1]	inhibition at 10 µM [2]	inhibition at 10 µM [3]	inhibition at 10 µM [4]	inhibition at 1 µM [1]	inhibition at 1 µM [4]	IC50 [1]	inhibition at 1 µM [2]	IC50 [2]	inhibition at 1 µM [3]	IC50 [3]	IC50 ([4]; mouse brain membrane fraction or cell lysates, 30 min preincubation at 37° C.)
O=C(c1cnn(C(=O)N2CCN(Cc3cncnc3)CC2)c1)N1CCOCC1 [Example 56, (4-(Morpholine-4-carbonyl)-1H-pyrazol-1-yl)(4-(pyrimidin-5-ylmethyl)piperazin-1-yl)methanone]									> 75%	< 25%	< 25%	> 75%	< 25%	< 25%						
Cc1cnn(C(=O)N(C)CCN(C)C(=O)OC(C)(C)C)c1 [Example 29, tert-Butyl (2-(N,4-dimethyl-1H-pyrazole-1-carboxamido)ethyl)(methyl)carbamate]									> 75%	25 to 75%	25 to 75%	< 25%	< 25%	< 25%		< 25%		< 25%		
O=C(N1CCN(Cc2ccncc2)CC1)n1cc(-c2ccccc2)cn1 [Example 59, (4-Phenyl-1H-pyrazol-1-yl)(4-(pyridin-4-ylmethyl)piperazin-1-yl)methanone]									> 75%	> 75%	25 to 75%	> 75%	> 75%	> 75%	100 to 1000 nM					
O=C(c1cnn(C(=O)N2CCN(C(c3ccc(Cl)cc3)c3ccc(Cl)cc3)CC2)c1)N1CCOCC1 [Example 67, (4-(Bis(4-chlorophenyl)methyl)piperazin-1-yl)(4-(morpholine-4-carbonyl)-1H-pyrazol-1-yl)methanone]									> 75%	25 to 75%	> 75%	> 75%	> 75%	> 75%	100 to 1000 nM	< 25%	> 1000 nM	> 75%	100 to 1000 nM	
O=C(N1CCN(Cc2ccc(C(F)(F)F)cc2N2CCCC2)CC1)n1cc(-c2ccc(C(F)(F)F)cc2)cn1 [Example 116, (4-(2-(Pyrrolidin-1-yl)-4-(trifluoromethyl)benzyl)piperazin-1-yl)(4-(4-(trifluoromethyl)phenyl)-1H-pyrazol-1-yl)methanone]									> 75%	< 25%	> 75%	> 75%	> 75%		> 1000 nM	< 25%		25 to 75%		

Further lines, results first:

inhibition at 1 µM ([1]; gel-based competitive ABPP)	inhibition at 1 µM ([2]; gel-based competitive ABPP)	inhibition at 1 µM ([3]; gel-based competitive ABPP)	inhibition at 1 µM ([4]; gel-based competitive ABPP)	inhibition at 10 µM ([1]; gel-based competitive ABPP)	inhibition at 10 µM ([2]; gel-based competitive ABPP)	inhibition at 10 µM ([3]; gel-based competitive ABPP)	inhibition at 10 µM ([4]; gel-based competitive ABPP)	inhibition at 10 µM [1]	inhibition at 10 µM [2]	inhibition at 10 µM [3]	inhibition at 10 µM [4]	inhibition at 1 µM [1]	inhibition at 1 µM [4]	IC50 [1]	inhibition at 1 µM [2]	IC50 [2]	inhibition at 1 µM [3]	IC50 [3]	IC50 ([4]; mouse brain membrane fraction or cell lysates, 30 min preincubation at 37° C.)	SMILES
> 75%	> 75%	> 75%	< 25%																	Cc1cnn(C(=O)N2CCN(Cc3cccc(Oc4ccccc4)c3)CC2)c1 [Example 294, (4-Methyl-1H-pyrazol-1-yl)(4-(3-phenoxybenzyl)piperazin-1-yl)methanone]
> 75%	> 75%	> 75%	> 75%	> 75%	> 75%	> 75%	> 75%													N#Cc1cnn(C(=O)N2CCN(Cc3ccc(C(=O)N4CCC4)cc3F)CC2)c1 [Example 285, 1-(4-(4-(Azetidine-1-carbonyl)-2-fluorobenzyl)piperazine-1-carbonyl)-1H-pyrazole-4-carbonitrile]
								< 25%	< 25%	< 25%	< 25%									CC(=O)N(C)CCN(C)C(=O)n1cc(Cl)cn1 [Example 193, 4-Chloro-N-methyl-N-(2-(N-methylacetamido)ethyl)-1H-pyrazole-1-carboxamide]
								> 75%	> 75%	> 75%	> 75%	> 75%	> 75%	< 100 nM	> 75%	< 100 nM	> 75%	< 100 nM	< 100 nM	O=C(N1CCN(c2ccc(N3CCCC3)cc2)CC1)n1cc(C(F)(F)F)cn1 [Example 241, (4-(4-(Pyrrolidin-1-yl)phenyl)piperazin-1-yl)(4-(trifluoromethyl)-1H-pyrazol-1-yl)methanone]
